Laboratory results taken from article PMC8655160, “Overcome Chemoresistance: Biophysical and Structural Analysis of Synthetic FHIT-Derived Peptides” (Frontiers in Molecular Biosciences, 2021).

Key:
[1] = biological target: T1, ANXA4 (Homo sapiens, UniProt P09525); assay: NanoDSF thermal unfolding of ANXA4 with peptides; type: binding; details: peptide 200 μM, protein 40 µM; for Tm (°C): ramp 20-95°C, Ctrl 48.5; for ΔTm at 200 µM: versus Ctrl
T1 construct: purchased Genscript lot N. U8886ED090-5/P3ED001
T1 sequence (P09525 1-319): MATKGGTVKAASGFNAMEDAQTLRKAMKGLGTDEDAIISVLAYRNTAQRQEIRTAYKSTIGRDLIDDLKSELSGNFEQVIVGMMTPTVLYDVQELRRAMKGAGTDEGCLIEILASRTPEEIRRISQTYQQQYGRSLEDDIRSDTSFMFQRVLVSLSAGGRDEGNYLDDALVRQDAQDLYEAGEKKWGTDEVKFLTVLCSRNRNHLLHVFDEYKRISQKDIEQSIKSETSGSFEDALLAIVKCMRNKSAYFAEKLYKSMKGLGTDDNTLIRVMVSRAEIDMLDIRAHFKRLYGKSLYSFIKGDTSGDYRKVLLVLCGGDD
Protocol: The assay was carried out in PBS (pH 7.4, 5 mM CaCl2) buffer using 40 μM of protein and 200 μM of compounds. The samples were loaded into nanoDSF Grade Standard Capillaries (NanoTemper Technologies) and analyzed using the Prometheus NT.48 nanoDSF device (NanoTemper Technologies). Thermal unfolding of the protein was monitored using a linear thermal ramp (1°C/min; 20°C–95°C) with an excitation power of 90%. […] In control, the sample was replaced with buffer solution. Three independent measurements were carried out for each compound, and their mean is depicted. The fluorescence intensity ratio and its first derivative were calculated with the manufacturer’s software (PR.ThermControl, version 2.1.2).
NanoDSF is an advanced differential scanning fluorimetry method for measuring melting temperature (Tm) of peptide-protein complex. In nanoDSF, a protein in solution is exposed to a temperature gradient that leads to the unfolding of the protein. The intrinsic fluorescence of the protein, mainly originating from the aromatic sidechains of tyrosine and tryptophan residues, is examined. Upon unfolding, the environment of those residues alters because they become exposed to the solvent and, thus, their fluorescence intensity changes. The relation between fluorescence intensity changes and temperature gradient can be used to obtain a so-called apparent Tm.

[2] = system: A549 cells; type: cell-based; details: peptide (100 μM) + paclitaxel (800 nM); 72 h
Protocol: A549 were grown in appropriate medium (Sigma Aldrich, St. Louis, MO) supplemented with 10% fetal bovine serum (FBS) (Sigma Aldrich, St. Louis, MO), 1% penicillin/streptomycin (Sigma Aldrich, St. Louis, MO) at 37°C in a 5% CO2 incubator. A549, adenocarcinoma cells line, were treated using a combo of paclitaxel (800 nM, PTX) and peptides (10 μM, 50 μM, 100 µM). After 24, 48, and 72 h, 10 μL/well of CTG detection mix, from CellTiter-Glo Assay Kit (Promega Corp, Madison, United States), were added; plates were gently mixed, incubated for 10 min in the dark, and read using EnVision Multilabel 2103.  FIGURE 8 Inhibition of A549 cell viability in cells treated with paclitaxel (800 nM) and peptides 1–8 (100 μM). Cells were plated in triplicate in 384-well plates and treated with PTX and peptides (DMSO was used as a […] control) for 24, 48, or 72 h. Cell viability was measured using CellTiter assay as described in the Materials and Methods section. Cell viability was expressed as a percentage of control and each column represents the mean ± SD of three independent experiments.

[3] = system: Annexin A4 translocation in A549 and Calu-2 lung cancer cells; set-up: method as in Gaudio et al., 2013; details: A549 and Calu-2 lung cancer cells treated with paclitaxel; ref Gaudio et al., 2013; cited from earlier work
[4] = biological target: T2, His-tag-ANXA4 (annexin A4) (UniProt P09525 1-319, in MST only: labelled with His-Tag Labeling Kit RED-tris-NTA (NT647 fluorophore)); assay: SPR; Biacore T200; His-tag-ANXA4 captured on anti-histidine antibody coupled to CM5 chip; peptide 0.08-5 uM injected at 25 C, 30 uL/min, 120 s association, 600 s dissociation; HBS-P+ pH 7.4 with 5 mM CaCl2; global 1:1 fit, KD = kd/ka; details: both partners purified
T2 construct: annexin A4 (ANXA4); Probably human ANXA4, since the work is on human lung cancer cells; also called NT647-ANXA4; ANX4; source: expressed by Genscript (lot N. U8886ED090-5/P3ED001); not shown: His6, C-terminal, kept
T2 sequence (looked up): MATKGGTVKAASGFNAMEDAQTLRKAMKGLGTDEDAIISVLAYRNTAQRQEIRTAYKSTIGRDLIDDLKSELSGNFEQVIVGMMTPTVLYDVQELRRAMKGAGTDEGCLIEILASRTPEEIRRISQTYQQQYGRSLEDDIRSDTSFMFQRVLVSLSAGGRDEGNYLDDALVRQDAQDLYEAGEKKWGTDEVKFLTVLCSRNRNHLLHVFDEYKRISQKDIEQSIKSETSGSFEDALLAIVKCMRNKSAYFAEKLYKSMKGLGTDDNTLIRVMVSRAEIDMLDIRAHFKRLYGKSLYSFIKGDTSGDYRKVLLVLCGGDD

[5] = biological target: T2, His-tag-ANXA4 (annexin A4); assay: MST; Monolith NT.115pico; 40 nM NT647-labelled ANXA4 mixed 1:1 with serial dilutions of peptide (highest 50 uM); PBS pH 7.4, 5 mM CaCl2; 10 min at rt; standard-treated capillaries, high MST power, LED 10%; duplicates; details: both partners purified
[6] = biological target: T3, His-tag-ANXA4 (annexin A4) (UniProt P09525 1-319, in MST only: labelled with His-Tag Labeling Kit RED-tris-NTA (NT647 fluorophore)); assay: SPR
T3 chain: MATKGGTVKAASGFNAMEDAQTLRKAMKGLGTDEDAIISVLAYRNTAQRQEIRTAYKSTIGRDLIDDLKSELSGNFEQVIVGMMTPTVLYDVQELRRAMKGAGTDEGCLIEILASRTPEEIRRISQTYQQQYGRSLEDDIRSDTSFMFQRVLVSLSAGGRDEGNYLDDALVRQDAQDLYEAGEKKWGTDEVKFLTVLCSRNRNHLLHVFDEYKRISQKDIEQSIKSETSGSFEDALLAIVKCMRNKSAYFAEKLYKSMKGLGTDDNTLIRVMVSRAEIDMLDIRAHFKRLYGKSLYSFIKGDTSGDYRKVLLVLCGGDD

Ac-QHLIAPS-NH2 [peptide 4, QHLIAPS]
Tm (°C) [1]: 49.2 °C | ΔTm at 200 µM [1]: 0.7 °C

Ac-QALIKPS-NH2 [peptide 7, QALIKPS]
Tm (°C) [1]: 49.1 °C | ΔTm at 200 µM [1]: 0.6 °C | Biological activity in combination with paclitaxel compared to reference peptide 1 (in words) [2]: slightly improves the paclitaxel cytotoxicity

Ac-QHAIKPS-NH2 [peptide 6, QHAIKPS]
Tm (°C) [1]: 48.9 °C | ΔTm at 200 µM [1]: 0.4 °C | Biological activity in combination with paclitaxel compared to reference peptide 1 (in words) [2]: slightly improves the paclitaxel cytotoxicity

Ac-AHLIKPS-NH2 [peptide 8, AHLIKPS]
Tm (°C) [1]: 48.9 °C | ΔTm at 200 µM [1]: 0.4 °C | Biological activity in combination with paclitaxel compared to reference peptide 1 (in words) [2]: decrease of cell viability compared to reference peptide 1

Ac-QHLIKPS-NH2 [peptide 1, QHLIKPS]
Tm (°C) [1]: 48.6 °C | ΔTm at 200 µM [1]: 0.1 °C | Inhibition of Annexin A4 translocation from cytosol to plasma membrane [3]: inhibiting Annexin A4 translocation from cytosol to plasma membrane

Ac-QHLAKPS-NH2 [compound 5, QHLAKPS]
Tm (°C) [1]: 49.2 °C | ΔTm at 200 µM [1]: 0.7 °C

Ac-QHLIKPA-NH2 (N-terminus and C-terminus assumed) [peptide 2, QHLIKPA]
Tm (°C) [1]: 48.7 °C | ΔTm at 200 µM [1]: 0.2 °C | Biological activity in combination with paclitaxel compared to reference peptide 1 (in words) [2]: basically preserves the biological activity

Ac-QHLIKAS-NH2 [peptide 3, QHLIKAS]
ΔTm at 200 µM [1]: 0.5 °C

B1: FHIT mimetic peptide 7-13 (peptide 1) (peptide)
peptide: Ac-QHLIKPS-NH2
notes: FHIT (fragile histidine triad protein), residues 7-13; also called FHIT (7-13); lead peptide; source: synthetic peptide (Fmoc solid phase, RP-HPLC purified)
Kd [4]: 840 ± 50 nM | Kd [5]: 4650 nM | Kd [6]: 1260 nM

B2: peptide 2 (QHLIKPA) (peptide)
peptide: Ac-QHLIKPA-NH2
notes: FHIT residues 7-13 with Ser7 of the peptide replaced by Ala; numbers count on: the peptide (residue 1 = Gln7 of FHIT); Ser7 is S13 of FHIT; also called analogue 2; source: synthetic peptide (Fmoc solid phase, RP-HPLC purified)
Kd [4]: 552 ± 80 nM | Kd [5]: 218 nM

B3: peptide 8 (AHLIKPS) (peptide)
peptide: Ac-AHLIKPS-NH2
notes: FHIT residues 7-13 with Gln1 of the peptide replaced by Ala; numbers count on: the peptide (residue 1 = Gln7 of FHIT); Gln1 is Q7 of FHIT; also called analogue 8; source: synthetic peptide (Fmoc solid phase, RP-HPLC purified)
Kd [4]: 1520 ± 330 nM | Kd [5]: 3040 nM

B4: peptide 5 (QHLAKPS) (peptide)
peptide: Ac-QHLAKPS-NH2
notes: FHIT residues 7-13 with Ile4 of the peptide replaced by Ala; numbers count on: the peptide (residue 1 = Gln7 of FHIT); Ile4 is I10 of FHIT; also called analogue 5; source: synthetic peptide (Fmoc solid phase, RP-HPLC purified)
Kd [5]: 1410 nM

B5: peptide 6 (QHAIKPS) (peptide)
peptide: Ac-QHAIKPS-NH2
notes: FHIT residues 7-13 with Leu3 of the peptide replaced by Ala; numbers count on: the peptide (residue 1 = Gln7 of FHIT); Leu3 is L9 of FHIT; also called derivative 6; source: synthetic peptide (Fmoc solid phase, RP-HPLC purified)
Kd [5]: 6400 nM

B6: peptide 4 (QHLIAPS) (peptide)
peptide: Ac-QHLIAPS-NH2
notes: FHIT residues 7-13 with Lys5 of the peptide replaced by Ala; numbers count on: the peptide (residue 1 = Gln7 of FHIT); Lys5 is K11 of FHIT; also called analogue 4; source: synthetic peptide (Fmoc solid phase, RP-HPLC purified)
Kd [4]: 53 ± 10 nM | Kd [5]: 146 nM

B7: peptide 7 (QALIKPS) (peptide)
peptide: Ac-QALIKPS-NH2
notes: FHIT residues 7-13 with His2 of the peptide replaced by Ala; numbers count on: the peptide (residue 1 = Gln7 of FHIT); His2 is H8 of FHIT; also called derivative 7; source: synthetic peptide (Fmoc solid phase, RP-HPLC purified)
Kd [4]: 850 ± 55 nM | Kd [5]: 1130 nM

B8: peptide 3 (QHLIKAS) (peptide)
peptide: Ac-QHLIKAS-NH2
notes: FHIT residues 7-13 with Pro6 of the peptide replaced by Ala; numbers count on: the peptide (residue 1 = Gln7 of FHIT); Pro6 is P12 of FHIT; also called analogue 3; source: synthetic peptide (Fmoc solid phase, RP-HPLC purified)
Kd [4]: 375 ± 20 nM | Kd [5]: 14 nM
